Experimental data reported in article PMC8081293 (Frontiers in Chemistry, 2021).
Read-outs that look alike come from different tables or passages of the source.

Assays:
Test in all cases: acetophenone formation at […] nm, Michaelis-Menten fit
Type in all cases: biochemical
Conditions in all cases: 0.1 mM PLP, 0.25% DMSO, 50 mM sodium phosphate pH 8.0, 25°C
At-ATA [1] = molecular target: T1, At-ATA (Aspergillus terreus, UniProt Q0C8G1, E253A)
T1 construct: gene ATEG_10023

At-ATA [2] = molecular target: T2, At-ATA (Aspergillus terreus, UniProt Q0C8G1, E133Q)
T2 construct: gene ATEG_10023

At-ATA [3] = molecular target: T3, At-ATA (Aspergillus terreus, UniProt Q0C8G1, D224K)
T3 construct: gene ATEG_10023

[4] = read-out: Km1-(R)-PEA /, 2.5 mM pyruvate
[5] = read-out: Kmpyruvate /, 2.5 mM 1-(R)-PEA

SMILES | Km (At-ATA [1]; [4]) | Km (At-ATA [2]; [4]) | Km (At-ATA [3]; [4]) | Km (At-ATA [1]; [5]) | Km (At-ATA [2]; [5]) | Km (At-ATA [3]; [5])
C[C@@H](N)c1ccccc1 [1-(R)-PEA] | 170 ± 20 µM | 160 ± 10 µM | 140 ± 10 µM |  |  | 
CC(=O)C(=O)O [pyruvate] |  |  |  | 690 ± 10 µM | 500 ± 10 µM | 350 ± 20 µM
